Experimental data published in PMC10480608 (Heliyon, 2023).
Where two headings read alike, the source gives them in different places.

Columns and labels:
[1] = tested on: MDA-231 breast cancer cells; experiment: MTT cytotoxicity assay, MDA-231; format: cell-based, human
[2] = tested on: HepG2 (hepatocellular carcinoma); experiment: MTT cytotoxicity assay, HepG2; format: cell-based, human; details: read-out: IC50 ± SD, HEPG-2
[3] = tested on: MCF-7 (human breast adenocarcinoma); experiment: MTT cytotoxicity assay, MCF-7; format: cell-based; details: read-out: IC50 ± SD, MCF7
[4] = tested on: normal human dermal/fibroblasts; experiment: MTT cytotoxicity assay, normal fibroblasts; format: cell-based; details: read-out: IC50 ± SD, Fibro dental, 72 h
[5] = tested on: DU145 prostate cancer cells; experiment: MTT cytotoxicity assay, DU145; format: cell-based, human
MCF-7 cell lines = experiment: Dose response study, growth rate; format: cell-based, human; details: MCF-7, treatment for 24 h, tested 1–300 μg/mL
[6] = tested on: PC3 (human prostate carcinoma); experiment: MTT cytotoxicity assay, PC3; format: cell-based; details: 72 h, read-out: IC50 ± SD, PC-3
[7] = Homo sapiens, MDA-MB-231, read-out: IC50 ± SD, MDA-231
[8] = Homo sapiens, DU-145, read-out: IC50 ± SD, DU145

N.N.[Cl][Pt][Cl] [Cisplatin, reference compound]
IC50 ([1]; read-out: IC50 ± SD, MDA-231, Breast cancer cells, MTT, mean ± SD): 16.2 ± 1.6 µM
IC50 ([2]; Liver cancer cells, MTT, 72 h, mean ± SD): 9.64 ± 1.7 µM
IC50 ([3]; Breast cancer cells, MTT, 72 h, mean ± SD): 14.6 ± 2.8 µM
IC50 ([4]; Normal cells, MTT, mean ± SD): > 100 µM
IC50 ([5]; read-out: IC50 ± SD, DU145, Prostate cancer cells, MTT, mean ± SD): 8.5 ± 1.7 µM

Cc1nc([N+](=O)[O-])c(N2CCN(Cc3cn(Cc4cccc(F)c4)nn3)CC2)n1Cc1ccccc1 [Compound 9g, 1-(N1-benzyl-2-methyl-4-nitro-imidazole-5-yl)-4-((N1-(3-fluorobenzyl)-1H-1,2,3-triazol-4-yl)methyl)piperazine]
IC50 ([3]; Homo sapiens, MCF7, 72 h): 2 ± 0.03 µM
concentration range with cytostatic effect (GR values) (MCF-7 cell lines): 1 to 300 µg/mL
concentration range with cytotoxic effect (GR values) (MCF-7 cell lines): did not show cytotoxic effects
IC50 ([4]; Homo sapiens, Fibroblast): > 500 µM

Cc1ccc(Cn2cc(CN3CCN(c4c([N+](=O)[O-])nc(C)n4Cc4ccccc4)CC3)nn2)cc1 [Compound 9k, 1-(N1-benzyl-2-methyl-4-nitro-imidazole-5-yl)-4-((N1-(4-methylbenzyl)-1H-1,2,3-triazol-4-yl)methyl)piperazine]
IC50 ([3]; Homo sapiens, MCF7, 72 h): 5 ± 2 µM
concentration range with cytostatic effect (GR values) (MCF-7 cell lines): 37.5 to 1 μg/mL
concentration range with cytotoxic effect (GR values) (MCF-7 cell lines): 75 to 300 µg/mL
IC50 ([4]; Homo sapiens, Fibroblast): > 500 µM

Cc1nc([N+](=O)[O-])c(N2CCN(Cc3cn(CC(=O)c4ccc(Br)cc4)nn3)CC2)n1Cc1ccccc1 [Compound 10b, 2-(4-((4-(1-benzyl-2-methyl-4-nitro-1H-imidazole-5-yl)piperazin-1-yl)methyl)-1H-1,2,3-triazol-1-yl)-1-(4-bromophenyl)ethanone]
IC50 [1, 7]: 1.33 ± 0.9 µM
IC50 ([3]; Homo sapiens, MCF7, 72 h): 372 ± 30 µM
IC50 [5, 8]: 8.95 ± 1.7 µM

COc1cccc(C(=O)Cn2cc(CN3CCN(c4c([N+](=O)[O-])nc(C)n4Cc4ccccc4)CC3)nn2)c1 [Compound 10c, 2-(4-((4-(1-benzyl-2-methyl-4-nitro-1H-imidazole-5-yl)piperazin-1-yl)methyl)-1H-1,2,3-triazol-1-yl)-1-(3-methoxyphenyl)ethanone]
IC50 [1, 7]: 1.38 ± 1.3 µM
IC50 ([3]; Homo sapiens, MCF7, 72 h): 585 ± 37 µM
IC50 ([4]; Homo sapiens, Fibroblast): > 500 µM
IC50 [5, 8]: 15 ± 1.6 µM

Cc1nc([N+](=O)[O-])c(N2CCN(Cc3cn(-c4ccc5c(c4)OCO5)nn3)CC2)n1Cc1ccccc1 [Compound 11p, 1-((N1-(benzo[d] [1,3]dioxol-5-yl)-1H-1,2,3-triazol-4-yl)methyl)-4-(N1-benzyl-2-methyl-4-nitro-1H-imidazole-5-yl) piperazine]
IC50 [1, 7]: 11.7 ± 1.6 µM
IC50 ([3]; Homo sapiens, MCF7, 72 h): 52 ± 30 µM
IC50 [5, 8]: 0.803 ± 0.04 µM

COc1cccc2c1C(=O)c1c(O)c3c(c(O)c1C2=O)C[C@@](O)(C(=O)CO)C[C@@H]3O[C@H]1C[C@H](N)[C@H](O)[C@H](C)O1 [Doxorubicin, reference compound]
IC50 [1, 7]: 2.3 ± 1.3 µM
IC50 ([2]; Homo sapiens, HepG2, 72 h): 0.61 ± 0.05 µM
IC50 ([3]; Homo sapiens, MCF7, 72 h): 0.64 ± 0.04 µM
IC50 [6]: 0.62 ± 0.06 µM
IC50 ([4]; Homo sapiens, Fibroblast): > 100 µM
IC50 [5, 8]: 0.66 ± 0.04 µM
